Data taken from patent publication US7288256B1, “T cell epitopes of the major allergens from dermatophagoides (house dust mite)” (Merck Patent GmbH, priority 1991, dated 2007).
Residues, ends and D or L forms follow the SMILES beside them.

What was measured:
[1] = pH-solubility profile of candidate peptides (HPLC of filtrate); assay type: physicochemical; details: for solubility (in words, against the superior solubility standard of 3 mg/ml): development of DPII-22.14 from DpII-22; for solubility thermodynamic at 24 h: at a pH in the pH range of pH 6 to pH 8, 50 mM sodium phosphate, about 22° C.
Experimental: Stock solution A: 0.66 g […] of monobasic sodium phosphate monohydrate U.S.P. and 50 mg EDTA disodium dihydrate, U.S.P. were dissolved in 100 mL of WFI. The solution was filtered through a 0.2 micron filter
Stock solution B: 0.71 g […] of dibasic sodium phosphate U.S.P. were disolved in 100 ml WFI. The solution was filtered through a 0.2 micron filter.
Dispersions A and B were sonicated for 2 minutes for good homogeneity. A small volume was pipetted from each dispersion into a labeled eppendoff vial according to the following volume ratio:
The resultant solutions/suspensions were stored in the dark at about 22° C.±2 for 24 hours without agitation. The solutions were filtered and filtrates were analyzed for pH and peptide concentration.

[2] = pH-stability profile of candidate peptides (percent degradant peak area by HPLC); details: for stability (in words): single peptide, aqueous buffer, pH 6 to pH 8, development of DPII-22.14; for solution stability in equal concentration combination: 3, 2 and 1 mg/ml per peptide, 24 hours at about 5° C. and about 22° C., common window within pH 6 to pH 8
Experimental: The concentration of filtered peptide solutions was determined by HPLC analysis. In this experiment, the solubility of peptide at each pH is defined as the amount of peptide remaining in solution after filtration through a membrane filter having a 0.2 micrometer pore size. The extent of degradation of peptides was estimated by calculating the percent of total degradant peak area over the total peak area.

CC[C@H](C)[C@H](NC(=O)[C@H](CO)NC(=O)[C@H](C)NC(=O)[C@H](CCCCN)NC(=O)[C@@H](NC(=O)[C@H](CCC(=O)O)NC(=O)[C@@H](NC(=O)[C@H](CCCCN)NC(=O)[C@H](C)NC(=O)[C@@H](NC(=O)[C@H](CCCCN)NC(=O)[C@@H](NC(=O)[C@H](CC(N)=O)NC(=O)[C@H](CCC(N)=O)NC(=O)[C@H](CC(N)=O)NC(=O)[C@H](C)NC(=O)[C@H](CCC(=O)O)NC(=O)[C@H](Cc1ccccc1)NC(=O)[C@@H](NC(=O)[C@H](C)NC(=O)[C@H](CCC(=O)O)NC(=O)[C@H](CC(C)C)NC(=O)[C@H](CCC(N)=O)NC(=O)[C@H](CCCCN)NC(=O)[C@@H](N)CC(=O)O)C(C)C)[C@@H](C)O)[C@@H](C)O)[C@@H](C)CC)[C@@H](C)CC)C(=O)N[C@@H](CC(=O)O)C(=O)NCC(=O)N[C@@H](CC(C)C)C(=O)N[C@@H](CCC(=O)O)C(=O)N[C@H](C(=O)N[C@@H](CC(=O)O)C(=O)O)C(C)C [DP II-22.6] (H-DKQLEAVFEANQNTKTAKIEIKASIDGLEVD-OH)
solubility (in words, against the superior solubility standard of 3 mg/ml) [1]: solubility did not reach the standard
stability (in words) [2]: stability improved substantially

CC(C)[C@H](NC(=O)CNC(=O)[C@H](CCC(=O)O)NC(=O)[C@H](CCC(=O)O)NC(=O)[C@@H](N)CC(=O)O)C(=O)N[C@H](C(=O)N[C@@H](CCC(N)=O)C(=O)N[C@@H](CCC(=O)O)C(=O)N[C@@H](CO)C(=O)N[C@@H](Cc1ccc(O)cc1)C(=O)N[C@@H](Cc1ccc(O)cc1)C(=O)N[C@@H](CCCNC(=N)N)C(=O)N[C@@H](Cc1ccc(O)cc1)C(=O)N[C@H](C(=O)N[C@@H](C)C(=O)N[C@@H](CCCNC(=N)N)C(=O)N[C@@H](CCC(=O)O)C(=O)N[C@@H](CCC(N)=O)C(=O)N[C@@H](CO)C(=O)N[C@@H](CS)C(=O)N[C@@H](CCCNC(=N)N)C(=O)N[C@@H](CCCNC(=N)N)C(=O)N1CCC[C@H]1C(=O)N[C@@H](CC(N)=O)C(=O)N[C@@H](C)C(=O)N[C@@H](CCC(=O)O)C(=O)O)C(C)C)C(C)C [DP I-23.31] (H-DEEGVVQESYYRYVAREQSCRRPNAE-OH; N-terminus and C-terminus assumed)
solubility thermodynamic at 24 h [1]: > 3000 µg/mL
solution stability in equal concentration combination [2]: acceptable solution stability

CC[C@H](C)[C@H](NC(=O)CNC(=O)[C@H](CCC(=O)O)NC(=O)[C@@H](N)CC(=O)O)C(=O)N[C@@H](CCCCN)C(=O)N[C@@H](CC(=O)O)C(=O)N[C@@H](CC(C)C)C(=O)N[C@@H](CC(=O)O)C(=O)N[C@@H](C)C(=O)N[C@@H](Cc1ccccc1)C(=O)N[C@@H](CCCNC(=N)N)C(=O)N[C@@H](Cc1c[nH]cn1)C(=O)N[C@@H](Cc1ccc(O)cc1)C(=O)N[C@@H](CC(=O)O)C(=O)NCC(=O)N[C@@H](CCCNC(=N)N)C(=O)N[C@H](C(=O)N[C@H](C(=O)N[C@H](C(=O)N[C@@H](CCC(N)=O)C(=O)N[C@@H](CCCNC(=N)N)C(=O)N[C@@H](CC(=O)O)C(=O)N[C@@H](CC(N)=O)C(=O)NCC(=O)N[C@@H](Cc1ccc(O)cc1)C(=O)N[C@@H](CCC(=O)O)C(=O)O)[C@@H](C)CC)[C@@H](C)CC)[C@@H](C)O [DP I-26.6] (H-DEGIKDLDAFRHYDGRTIIQRDNGYE-OH; N-terminus and C-terminus assumed)
solubility thermodynamic at 24 h [1]: > 3000 µg/mL
solution stability in equal concentration combination [2]: acceptable solution stability

CC[C@H](C)[C@H](NC(=O)[C@H](CCC(=O)O)NC(=O)[C@@H](NC(=O)[C@H](CCCCN)NC(=O)[C@H](C)NC(=O)[C@@H](NC(=O)[C@H](CCCCN)NC(=O)[C@@H](NC(=O)[C@H](CC(N)=O)NC(=O)[C@H](CCC(N)=O)NC(=O)[C@H](CC(N)=O)NC(=O)[C@H](C)NC(=O)[C@H](CCC(=O)O)NC(=O)[C@H](Cc1ccccc1)NC(=O)[C@@H](NC(=O)[C@H](C)NC(=O)[C@H](CCC(=O)O)NC(=O)[C@H](CC(C)C)NC(=O)[C@H](CCC(N)=O)NC(=O)[C@H](CCCCN)NC(=O)[C@@H](N)CC(=O)O)C(C)C)[C@@H](C)O)[C@@H](C)O)[C@@H](C)CC)C(=O)N[C@@H](CCCCN)C(=O)N[C@@H](C)C(=O)N[C@@H](CO)C(=O)N[C@H](C(=O)N[C@@H](CC(=O)O)C(=O)N[C@@H](CCC(=O)O)C(=O)O)[C@@H](C)CC [DP II-22.5] (H-DKQLEAVFEANQNTKTAKIEIKASIDE-OH; N-terminus and C-terminus assumed)
solubility (in words, against the superior solubility standard of 3 mg/ml) [1]: very soluble

CC[C@H](C)[C@H](NC(=O)[C@H](CO)NC(=O)[C@H](C)NC(=O)[C@H](CCCCN)NC(=O)[C@@H](NC(=O)[C@H](CCC(=O)O)NC(=O)[C@@H](NC(=O)[C@H](CCCCN)NC(=O)[C@H](C)NC(=O)[C@@H](NC(=O)[C@H](CCCCN)NC(=O)[C@@H](NC(=O)[C@H](CC(N)=O)NC(=O)[C@H](CCC(N)=O)NC(=O)[C@H](CC(N)=O)NC(=O)[C@H](C)NC(=O)[C@H](CCC(=O)O)NC(=O)[C@H](Cc1ccccc1)NC(=O)[C@@H](NC(=O)[C@H](C)NC(=O)[C@H](CCC(=O)O)NC(=O)[C@H](CC(C)C)NC(=O)[C@H](CCC(N)=O)NC(=O)[C@@H](N)CCCCN)C(C)C)[C@@H](C)O)[C@@H](C)O)[C@@H](C)CC)[C@@H](C)CC)C(=O)N[C@@H](CC(=O)O)C(=O)NCC(=O)N[C@@H](CC(C)C)C(=O)N[C@@H](CCC(=O)O)C(=O)N[C@H](C(=O)N[C@@H](CCCCN)C(=O)O)C(C)C [DP II-22.2] (H-KQLEAVFEANQNTKTAKIEIKASIDGLEVK-OH)
solubility (in words, against the superior solubility standard of 3 mg/ml) [1]: solubility did not reach the standard
stability (in words) [2]: stability improved substantially

CC[C@H](C)[C@H](NC(=O)[C@H](CCC(=O)O)NC(=O)[C@H](C)NC(=O)[C@@H]1CCCN1C(=O)[C@H](C)NC(=O)[C@H](CC(N)=O)NC(=O)CNC(=O)[C@H](CC(N)=O)NC(=O)[C@@H](NC(=O)[C@@H](N)CO)[C@@H](C)CC)C(=O)N[C@@H](CC(=O)O)C(=O)N[C@@H](CC(C)C)C(=O)N[C@@H](CCCNC(=N)N)C(=O)N[C@@H](CCC(N)=O)C(=O)N[C@@H](CCSC)C(=O)N[C@@H](CCCNC(=N)N)C(=O)N[C@H](C(=O)N[C@H](C(=O)N[C@H](C(=O)N1CCC[C@H]1C(=O)N[C@H](C(=O)N[C@@H](CCCNC(=N)N)C(=O)N[C@@H](CCSC)C(=O)N[C@@H](CCC(N)=O)C(=O)O)[C@@H](C)CC)[C@@H](C)O)C(C)C)[C@@H](C)O [DP I-21.2] (H-SINGNAPAEIDLRQMRTVTPIRMQ-OH; N-terminus and C-terminus assumed)
solubility thermodynamic at 24 h [1]: > 3000 µg/mL
solution stability in equal concentration combination [2]: acceptable solution stability

CC[C@H](C)[C@H](NC(=O)[C@H](C)NC(=O)[C@H](CS)NC(=O)[C@H](C)NC(=O)[C@H](CC(C)C)NC(=O)[C@@H](NC(=O)CNC(=O)[C@H](CC(=O)O)NC(=O)[C@H](CC(=O)O)NC(=O)CNC(=O)[C@H](CCSC)NC(=O)[C@@H](NC(=O)[C@H](CCCCN)NC(=O)[C@@H](NC(=O)[C@@H](NC(=O)[C@H](CCC(=O)O)NC(=O)[C@H](CCC(=O)O)NC(=O)[C@@H](N)CC(=O)O)[C@@H](C)O)C(C)C)C(C)C)C(C)C)C(=O)N[C@@H](C)C(=O)N[C@H](C(=O)N[C@@H](Cc1c[nH]cn1)C(=O)N[C@@H](C)C(=O)N[C@@H](CCCCN)C(=O)N[C@H](C(=O)N[C@@H](CCCNC(=N)N)C(=O)N[C@@H](CC(=O)O)C(=O)N[C@@H](CCC(=O)O)C(=O)N[C@@H](CCC(=O)O)C(=O)O)[C@@H](C)CC)[C@@H](C)O [DP II-25.15] (H-DEETVKVMGDDGVLACAIATHAKIRDEE-OH; N-terminus and C-terminus assumed)
solubility thermodynamic at 24 h [1]: > 3000 µg/mL
solution stability in equal concentration combination [2]: acceptable solution stability
